The source of these data is US9856230B2 (University of Sunderland, priority 2012, dated 2018).

One data set is described as follows: in vitro. The conditions noted are these: human, Viable Cells (%).
In data set [1] the target is T1, Trx system (thioredoxin/thioredoxin reductase) (Homo sapiens, UniProt Q16881).
T1 sequence (Q16881 151-649 limits assumed): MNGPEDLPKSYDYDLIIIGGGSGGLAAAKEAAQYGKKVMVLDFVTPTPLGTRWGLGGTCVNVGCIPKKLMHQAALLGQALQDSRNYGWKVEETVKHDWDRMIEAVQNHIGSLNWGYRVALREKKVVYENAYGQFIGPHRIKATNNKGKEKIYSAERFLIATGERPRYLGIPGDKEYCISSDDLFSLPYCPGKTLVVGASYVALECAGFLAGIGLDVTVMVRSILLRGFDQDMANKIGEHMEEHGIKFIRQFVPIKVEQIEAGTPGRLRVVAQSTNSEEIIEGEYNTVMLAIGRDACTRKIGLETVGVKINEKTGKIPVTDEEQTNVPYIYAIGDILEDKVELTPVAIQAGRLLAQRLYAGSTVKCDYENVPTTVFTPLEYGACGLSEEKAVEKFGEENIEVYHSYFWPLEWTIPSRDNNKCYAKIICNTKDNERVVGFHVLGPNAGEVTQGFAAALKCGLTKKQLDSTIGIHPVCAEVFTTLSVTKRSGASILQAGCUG
Nature of the data set: Thioredoxin/thioredoxin reductase insulin reduction assay. The class given is biochemical. The note with it: for inhibition at 500 µM: compound at 500 μM, read-out: Inhib. (%) Trx Syst. at 500 μM. As to the method:
Thioredoxin/thioredoxin reductase inhibition was measured using the insulin reduction assay (Stevens, M. F. G., Pallis, M., Bradshaw, T. D., Westwell, A. D., Grundy, M., Russell, N, “Induction of apoptosis without redox catastrophe by thioredoxin-inhibitory compounds”, Biochem. Pharmacol. (2003) 66, 1695-1705). […] The first part of the assay involves TrxR reducing oxidized Trx via NADPH. The reduced Trx then reduces disulfide bonds in the insulin, leaving exposed thiol groups, as summarized by the Trx reaction scheme.
The addition of dithionitrobenzoic acid (DTNB) to the free thiol groups of the insulin cleaves the disulfide bond in the DTNB which gives rise to a yellow colour (DTNB reaction scheme). The yellow colour is observed under basic conditions due to the conjugation of electrons between the thiolate anion and the nitro group of thionitrobenzoic acid (TNB). The level of thioredoxin/thioredoxin reductase inhibitory activity is […] proportional to the intensity of the yellow colour.
Addition of DTNB to reduced insulin produces thionitrobenzoic acid (TNB) and a mixed insulin disulfide. DTNB has very little absorbance, but under mild basic conditions TNB forms an anion that gives an intense yellow colour at 412 nm.
Synthesized compounds were tested for thioredoxin/thioredoxin reductase activity using the thioredoxin/thioredoxin reductase insulin assay described above under the heading “Assays”. The compounds were also tested for antiproliferative activity using the MTT assay described above under the heading “Assays”. Theoretical C log P values for the compounds were calculated using ChemDraw. The C log P of a compound is the logarithm of the compound's partition coefficient between n-octanol and water log(coctanol/cwater) and represents a measure of the compound's hydrophilicity and hydrophobicity. […]

Data set [2] has as its system human T-cells.
Excerpt: (§1) To determine if the analogues were causing apoptosis or necrosis, an Annexin V-Pe assay was used. […] The annexin V is attached to a fluorescent probe that is used for detection by flow cytometry. […] The assay is also used in conjugation with 7-aminoactinomycin D (7-AAD). […] As the plasma membrane becomes increasingly permeable, 7-AAD can move readily across the cell membrane and bind to cellular DNA, thereby providing a way of identifying cells that have lost their membrane integrity; however, when the cell is viable or undergoing early stages of apoptosis, it is impermeable to 7-AAD.
In data set [3] the test system is HPV-16 immortalized keratinocyte cell line (CCD-1106 KERTr). Nature of the data set: cells. The conditions noted are these: Homo sapiens; CCD-1106 KERTr keratinocytes; read-out: MTT GI50. Format: cell-based.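 Also: growth inhibition read as spectrophotometric formazan colour from mitochondrial dehydrogenase cleavage of MTT, proportional to viable cell number, modelling psoriatic hyperproliferation, lower values mean stronger antiproliferative activity.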
Excerpt: The assay is based on the ability of a mitochondrial dehydrogenase enzyme to cleave the tetrazolium rings of the yellow MTT to form dark blue formazan crystals (MTT reaction scheme). These crystals are mostly impermeable to cell membranes and, consequently, they accumulate in healthy viable cells. The addition of detergent solubilizes the cells, which results in the liberation of purple formazan crystals. The number of viable cells is directly proportional to the level of purple formazan produced. This colour change can be measured by a spectrophotometer enabling quantification of changes in cellular proliferation. Compound activity measured by the MTT assay (or other proliferation related assay) may be given as a GI50 value.
A human papilloma virus-16 (HPV-16) immortalized keratinocyte cell line (CCD-1106 KERTr) was used in the MTT cell viability assay.
Antiproliferative activity is indicated by the MTT GI50 (μM), where a lower value indicates higher activity.
In data set [4] the test system is human T-cells. Nature of the data set: Annexin V-Pe assay (apoptosis/necrosis).
Excerpt: as §1
For data set [5], the system named is human T-cells. Kind of data set: CFSE proliferation assay. The conditions noted are these: 2000 ng per mL. The class given is cell-based. From the text: Carboxyfluorescein diacetate succinimidyl ester (56a) (CFSE) is a cell permeable compound which readily enters the cell, upon which, the ester group is cleaved by esterases to produce a fluorescent compound (known as carboxyfluorescein succinimidyl ester (56b)) that is less cell permeable (see CFSE reaction scheme). As cells divide, the carboxyfluorescein succinimidyl ester (56b) is split equally between the daughter cells, which results in reduced carboxyfluorescein succinimidyl ester (56b) signal detection with each subsequent cell division (FIG. 2). The attenuation of the signal gives an indication of the proliferative ability of the cells.
For a compound to show good antiproliferative properties in the CFSE assay, the majority of the cells should remain in the parent state (as per division 0 in FIG. 2). […] As cell division occurs, the carboxyfluorescein succinimidyl ester (56b) is split equally between daughter cells, which results in attenuated signal detection.
CFSE labeled T-cells were treated with compound (33f) or control (no compound added). In the control experiment the majority of cells reached the fifth division (proliferation index of 5.62). […] The PI is the sum of the cells in all generations divided by the calculated number of the original parent cells.

Excerpt for in vitro: as §1

The term viability denotes a read-out of living cells in per cent, often relative to untreated cells. Read a high viability as less harm to the cells. As usually defined, the IC50 is the concentration that inhibits the measured activity by half. As usually defined, the GI50 is the concentration at which growth is held to half of that of the control. `Cc1ccc(S(=O)(=O)Nc2ccc(NC(=O)c3ccco3)cc2NS(=O)(=O)c2ccc(C)cc2)cc1` [Compound (33f), N-(3,4-bis-(toluene-4-sulfonylamino)phenyl)-2-furamide] yielded a viability in the data set “in vitro” of 37%. In data set [1], the inhibition at 500 µM is 93.7%. Moreover, the IC50 in data set [1] (insulin reduction assay, read-out: Trx System IC50) stood at 37 µM. The “Viable Cells (%)” value with human T-cells [2] was determined as 46%. Also, in data set [3], the concentration for 50% growth inhibition (GI50) was found to be 10.8 µM. Further, in the data set on human T-cells [4] (annexin V positive, 7-AAD negative, control 29), the “Early Apoptotic Cells (%)” value is 31%. In addition, in the data set on human T-cells [4] (stain with both reagents, control 15), the “Late Apoptotic/Necrotic Cells (%)” value came to 13%. Further, the “division state of CFSE labeled T-cells” value in the data set with human T-cells [5] (control: majority reached the fifth division) is recorded as “the majority of cells remained in the parent state”. Further, in the data set on human T-cells [5] (CFSE labeled T-cells, control 5.62), the “proliferation index (PI)” value was determined as 1.36.

Consider `Cc1ccc(S(=O)(=O)Nc2ccc(-c3noc(C(C)C)n3)cc2NS(=O)(=O)c2ccc(C)cc2)cc1` [(21d), 1-(5′-isopropyl-1′,2′,4′-oxadiazol-3-yl)-3,4-bis-(toluene-4-sulfonylamino)benzene], for which, in data set [1], the inhibition at 500 µM came out at 13.9%. In data set [3], the 50% growth inhibitory concentration (GI50) was found to be 3.2 µM.

`CC(C)=CCN(CC=C(C)C)Cc1ccc(NS(=O)(=O)c2ccc(C)cc2)c(NS(=O)(=O)c2ccc(C)cc2)c1` [(31), [3,4-bis-(toluene-4-sulfonylamino)benzyl]bis-(3-methyl-but-2-enyl)amine]: the inhibition at 500 µM in data set [1] came out at 70%. In data set [3], the 50% growth inhibitory concentration (GI50) was 7.9 µM.

For the compound `Cc1ccc(S(=O)(=O)Nc2ccc(C(=O)O)cc2NS(=O)(=O)c2ccc(C)cc2)cc1` [(35), 3,4-bis-(toluene-4-sulfonylamino)benzoic acid], the inhibition at 500 µM in data set [1] was 20%. Besides, the GI50 in data set [3] stood at 67.3 µM.
